This passage reports IC50 and inhibition results from patent publication US20220274979A1 (Bayer Pharma Aktiengesellschaft, priority 2018, published 2022).

Test [1] has as its target T1, hK-RasG12C - hSOS1 interaction (Homo sapiens, UniProt Q07889).
T1 construct: hSOS1 (amino acid 564-1049); made in house; host or cells: E. coli BL21 (DE3)
T1 sequence (Q07889 with tags, fused parts or gaps): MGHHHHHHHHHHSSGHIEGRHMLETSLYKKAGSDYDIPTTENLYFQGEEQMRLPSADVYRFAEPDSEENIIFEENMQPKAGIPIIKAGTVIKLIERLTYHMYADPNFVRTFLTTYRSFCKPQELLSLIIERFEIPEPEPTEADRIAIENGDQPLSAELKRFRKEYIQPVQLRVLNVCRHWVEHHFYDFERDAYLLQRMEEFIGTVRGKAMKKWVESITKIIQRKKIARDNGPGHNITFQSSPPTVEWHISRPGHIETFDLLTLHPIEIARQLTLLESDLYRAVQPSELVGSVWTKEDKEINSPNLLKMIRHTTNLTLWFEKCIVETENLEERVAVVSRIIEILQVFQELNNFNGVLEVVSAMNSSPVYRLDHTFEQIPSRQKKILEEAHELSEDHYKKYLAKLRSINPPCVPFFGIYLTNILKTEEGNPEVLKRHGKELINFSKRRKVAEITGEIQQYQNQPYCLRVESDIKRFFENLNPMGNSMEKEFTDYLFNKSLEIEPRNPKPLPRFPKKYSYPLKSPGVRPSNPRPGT
Put plainly: Biochemical Assay 1: hK-RasG12C interaction assay with hSOS1 (HTRF). Particulars: for IC50: values expressed as IC50. The test is classed as binding. The essentials:
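HTRF signal between GST-hK-RasG12C (10 nM working solution, anti-GST-Eu) and His-hSOS1 (20 nM working solution, anti-6His-XL665) was read in HEPES pH 7.4 buffer with 10 mM EDTA, 1 mM DTT and 100 mM KF at 20 °C.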
In general terms: TR-FRET usually uses a lanthanide donor and a delayed reading to cut background.

For test [2], the target named is T2, hSOS1 (hSOS1-mediated loading of hK-RasG12C-GDP) (Homo sapiens, UniProt Q07889).
T2 construct: hSOS1 (amino acid 564-1049); made in house; host or cells: E. coli BL21 (DE3)
T2 sequence (Q07889 with tags, fused parts or gaps): T1 sequence (Q07889 with tags, fused parts or gaps)
The experiment in a line: Biochemical Assay 3: hK-RasG12C activation assay by hSOS1 (loading with fluorescent GTP analog, HTRF). The conditions noted are these: no GTP.

For the compound `Cc1nc(N[C@H](C)c2cccc(Br)c2)c2cc(Oc3cccc(O)c3)ncc2n1` [Example 40, 3-[(4-{[(1R)-1-(3-bromophenyl)ethyl]amino}-2-methylpyrido[3,4-d]pyrimidin-6-yl)oxy]phenol], the IC50 in test [1] is 13200 nM; in test [2], above 20000 nM.
Consider `Cc1nc(N[C@H](C)c2cccc(Br)c2)c2cc(Oc3cccc(C4=NCCN4C)c3)ncc2n1` [Example 41, N-[(1R)-1-(3-bromophenyl)ethyl]-2-methyl-6-[3-(1-methyl-4,5-dihydro-1H-imidazol-2-yl)phenoxy]pyrido[3,4-d]pyrimidin-4-amine], for which the IC50 was 1600 nM in test [1] and 3880 nM in test [2].
Consider `Cc1nc(N[C@H](C)c2cccc(Br)c2)c2cc(N3CCN(Cc4cccnc4)CC3)ncc2n1` [Example 43, N-[(1R)-1-(3-bromophenyl)ethyl]-2-methyl-6-[4-(pyridin-3-ylmethyl)piperazin-1-yl]pyrido[3,4-d]pyrimidin-4-amine], for which the IC50 came to 296 nM in test [1] and 446 nM in test [2].
For `CC(=O)NCCNc1cc2c(N[C@H](C)c3cccc(Br)c3)nc(C)nc2cn1` [Example 44, N-{2-[(4-{[(1R)-1-(3-bromophenyl)ethyl]amino}-2-methylpyrido[3,4-d]pyrimidin-6-yl)amino]ethyl}acetamide], in that order: 985 nM and 1640 nM.
For `Cc1nc(N[C@H](C)c2cccc(Br)c2)c2cc(N3CCNC(=O)C3)ncc2n1` [Example 45], in that order: 91.8 nM and 459 nM.
As to `Cc1nc(N[C@H](C)c2cccc(Br)c2)c2cc(NC3CCOCC3)ncc2n1` [Example 46], the IC50 was 1290 nM in test [1] and 12800 nM in test [2].
For the compound `Cc1nc(NC(C)c2ccc(-c3ccccc3CN(C)C)s2)c2cc(NCCN3CCOCC3)ncc2n1` (stereo not shown) [Example 48], the IC50 in test [1] came to 38.8 nM; in test [2] it was 114 nM.
For `Cc1nc(N[C@H](C)c2cccc(Br)c2)c2cc(NCCn3cccn3)ncc2n1` [Example 49, N4-[(1R)-1-(3-bromophenl)pethyl]-2-methyl-N6-[2-(1H-pyrazol-1-yl)ethyl]pyrido[3,4-d]pyrimidine-4,6-diamine], in that order: 1210 nM and 6990 nM.
For `CC(=O)NCCNc1cc2c(NC(C)c3ccc(-c4ccccc4CN(C)C)s3)nc(C)nc2cn1` (stereo not shown) [Example 51, N-{2-[(4-{[1-(5-{2-[(dimethylamino)methyl]phenyl}thiophen-2-yl)ethyl]amino}-2-methylpyrido[3,4-d]pyrimidin-6-yl)amino]ethyl}acetamide], in that order: 32.9 nM and 89.5 nM.
On to `Cc1nc(NC(C)c2ccc(-c3ccccc3CN(C)C)s2)c2cc(Oc3cccc(O)c3)ncc2n1` (stereo not shown) [Example 52, 3-[(4-{[1-(5-{2-[(dimethylamino)methyl]phenyl}thiophen-2-yl)ethyl]amino}-2-methylpyrido[3,4-d]pyrimidin-6-yl)oxy]phenol], for which the half-inhibitory concentration (IC50) in test [1] was 202 nM; in test [2] it was 532 nM.
As to `Cc1nc(NC(C)c2ccc(-c3ccccc3CN(C)C)s2)c2cc(NC3CCOCC3)ncc2n1` (stereo not shown) [Example 53, N4-[1-(5-{2-[(dimethylamino)methyl]phenyl}-2-thienyl)ethyl]-2-methyl-N6-(tetrahydro-2H-pyran-4-yl)pyrido[3,4-d]pyrimidine-4,6-diamine], the results for the IC50 in test [1] and in test [2] were 54.7 nM and 239 nM, respectively.
For `Cc1nc(NC(C)c2ccc(-c3ccccc3CN(C)C)s2)c2cc(NCCn3cccn3)ncc2n1` (stereo not shown) [Example 54, N4-[1-(5-{2-[(dimethylamino)methyl]phenyl}-2-thienyl)ethyl]-2-methyl-N6-[2-(1H-pyrazol-1-yl)ethyl]pyrido[3,4-d]pyrimidine-4,6-diamine], in that order: 49.6 nM and 189 nM.
For `Cc1nc(NC(C)c2ccc(-c3ccccc3CN(C)C)s2)c2cc(NCCn3ccnc3)ncc2n1` (stereo not shown) [Example 56, N4-[1-(5-{2-[(dimethylamino)methyl]phenyl}-2-thienyl)ethyl]-N6-[2-(1H-imidazol-1-yl)ethyl]-2-methylpyrido[3,4-d]pyrimidine-4,6-diamine], in that order: 39.4 nM and 89.5 nM.
Take `COc1cc2c(N[C@H](C)c3cccc(Br)c3)nc(C)nc2cn1` [Example 57, N-[(1R)-1-(3-bromophenyl)ethyl]-6-methoxy-2-methylpyrido[3,4-d]pyrimidin-4-amine]: the results for the IC50 in test [1] and in test [2] were 1970 nM and 1780 nM, respectively.
Consider `Cc1nc(NC(C)c2ccc(-c3ccccc3CN(C)C)s2)c2cc(Oc3cccc(C4=NCCN4C)c3)ncc2n1` (stereo not shown) [Example 58, N-[1-(5-{2-[(dimethylamino)methyl]phenyl}thiophen-2-yl)ethyl]-2-methyl-6-[3-(1-methyl-4,5-dihydro-1H-imidazol-2-yl)phenoxy]pyrido[3,4-d]pyrimidin-4-amine], for which the IC50 was 117 nM in test [1] and 155 nM in test [2].
On to `CSc1cc2c(NC(C)c3ccc(-c4ccccc4CN(C)C)s3)nc(C)nc2cn1` (stereo not shown) [Example 59, N-[1-(5-{2-[(dimethylamino)methyl]phenyl}thiophen-2-yl)ethyl]-2-methyl-6-(methylsulfanyl)pyrido[3,4-d]pyrimidin-4-amine], for which the results for the IC50 in test [1] and in test [2] were 66.2 nM and 67.7 nM, respectively.
For `CC(=O)NCCOc1cc2c(N[C@H](C)c3cccc(Br)c3)nc(C)nc2cn1` [Example 62, N-{2-[(4-{[(1R)-1-(3-bromophenyl)ethyl]amino}-2-methylpyrido[3,4-d]pyrimidin-6-yl)oxy]ethyl}acetamide], in that order: 291 nM and 735 nM.
For `CCOc1cc2c(NC(C)c3ccc(-c4ccccc4CN(C)C)s3)nc(C)nc2cn1` (stereo not shown) [Example 63, N-[1-(5-{2-[(dimethylamino)methyl]phenyl}thiophen-2-yl)ethyl]-6-ethoxy-2-methylpyrido[3,4-d]pyrimidin-4-amine], in that order: 43.6 nM and 61.1 nM.
The like results for `COc1cc2c(NC(C)c3ccc(-c4ccccc4CN(C)C)s3)nc(C)nc2cn1` (stereo not shown) [Example 64, N-[1-(5-{2-[(dimethylamino)methyl]phenyl}thiophen-2-yl)ethyl]-6-methoxy-2-methylpyrido[3,4-d]pyrimidin-4-amine] were, in that order, 59.5 nM and 80.3 nM.
In the case of `Cc1nc(NC(C)c2ccc(-c3ccccc3CN(C)C)s2)c2cc(OC3CCS(=O)(=O)CC3)ncc2n1` (stereo not shown) [Example 67, N-[1-(5-{2-[(dimethylamino)methyl]phenyl}thiophen-2-yl)ethyl]-6-[(1,1-dioxidotetrahydro-2H-thiopyran-4-yl)oxy]-2-methylpyrido[3,4-d]pyrimidin-4-amine], the values for the IC50 in test [1] and in test [2] were 42 nM and 63.3 nM, respectively.
Turning to `Cc1nc(NC(C)c2ccc(-c3ccccc3CO)s2)c2cc(F)ncc2n1` (stereo not shown) [Example 68, [2-(5-{1-[(6-fluoro-2-methylpyrido[3,4-d]pyrimidin-4-yl)amino]ethyl}thiophen-2-yl)phenyl]methanol], the inhibition at 20 µM in test [1] (read-out: Assay 1 (hKRAS, hSOS Interaction) activity (expressed as IC50, or as % inhibition at 20 μM)) worked out at 43.8%. The compound further had an IC50 in test [2] above 20000 nM.
As for `Cc1nc(N[C@H](C)c2cccc(Br)c2)c2cc(OCCCN(C)C)ncc2n1` [Example 70, N-[(1R)-1-(3-bromophenyl)ethyl]-6-[3-(dimethylamino)propoxy]-2-methylpyrido[3,4-d]pyrimidin-4-amine], the IC50 in test [1] was determined as 409 nM; in test [2], 1340 nM.
For `Cc1nc(NC(C)c2ccc(-c3ccccc3CN(C)C)s2)c2cc(N3CCC3)ncc2n1` (stereo not shown) [Example 71, 6-(azetidin-1-yl)-N-[1-(5-{2-[(dimethylamino)methyl]phenyl}thiophen-2-yl)ethyl]-2-methylpyrido[3,4-d]pyrimidin-4-amine], in that order: 51.1 nM and 82.5 nM.
For `Cc1nc(NC(C)c2ccc(-c3ccccc3CN(C)C)s2)c2cc(OCCCN(C)C)ncc2n1` (stereo not shown) [Example 72, N-[1-(5-{2-[(dimethylamino)methyl]phenyl}thiophen-2-yl)ethyl]-6-[3-(dimethylamino)propoxy]-2-methylpyrido[3,4-d]pyrimidin-4-amine], in that order: 34.2 nM and 49 nM.
Consider `Cc1nc(NC(C)c2ccc(-c3ccccc3CN(C)C)s2)c2cc(OCC3CC3)ncc2n1` (stereo not shown) [Example 73, 6-(cyclopropylmethoxy)-N-[1-(5-{2-[(dimethylamino)methyl]phenyl}thiophen-2-yl)ethyl]-2-methylpyrido[3,4-d]pyrimidin-4-amine], for which the values for the IC50 in test [1] and in test [2] were 95 nM and 138 nM, respectively.
For `Cc1nc(NC(C)c2ccc(-c3ccccc3CN(C)C)s2)c2cc(OCCO)ncc2n1` (stereo not shown) [Example 74, 2-[(4-{[1-(5-{2-[(dimethylamino)methyl]phenyl}thiophen-2-yl)ethyl]amino}-2-methylpyrido[3,4-d]pyrimidin-6-yl)oxy]ethanol], in that order: 55.2 nM and 107 nM.

Broadly, the IC50 is the concentration needed to halve the response being measured. A low value points to higher potency. For orientation: inhibition means the relative decrease from the control value, in per cent.
